In brackets after ≈: the same amount, converted by molar mass.
How the values were obtained:
HCT-116 [1] = assay: Anticancer activity against human HCT-116 cells assessed as inhibition of cell proliferation measured after 48 hrs by MTT assay; format: functional, cell-based; conditions: HCT-116, 48 h
Maver1 = assay: cells; conditions: Homo sapiens, Maver1, 72 h
Description: Anticancer activity against human MAVER-1 cells assessed as inhibition of cell proliferation measured after 72 hrs by Cell Titer-Glo Luminescent

Z-138 = assay: Anticancer activity against human Z138 cells assessed as inhibition of cell proliferation measured after 72 hrs by Cell Titer-Glo Luminescent; format: functional, cell-based; conditions: Z-138, 72 h
[2] = Anticancer activity against human MINO cells assessed as inhibition of cell proliferation measured after 72 hrs by Cell Titer-Glo Luminescent; format: functional, cell-based
JeKo-1 = assay: Anticancer activity against human JeKo-1 cells assessed as inhibition of cell proliferation measured after 72 hrs by Cell Titer-Glo Luminescent; format: functional, cell-based; conditions: JeKo-1, 72 h
KM12 = assay: Anticancer activity against human KM12 cells assessed as inhibition of cell proliferation measured after 72 hrs by MTT assay; format: functional, cell-based; conditions: KM12, 72 h
[3] = Selectivity index, ratio of IC50 for cytotoxicity against FHC cells to IC50 for antiproliferative activity against KM12 cells; format: toxicity, cell-based; conditions: human; read-out: Ratio IC50
[4] = target: Tyrosine-protein kinase JAK2 (Homo sapiens, UniProt O60674); assay: Inhibition of human JAK2 using biotin as a substrate preincubated for 5 mins followed by substrate addition incubated for 30 mins in presence of ATP by fluorescence based assay
HepG2 [5] = assay: Anticancer activity against human HepG2 cells assessed as inhibition of cell proliferation by MTT assay; format: functional, cell-based
HeLa [6] = assay: Anticancer activity against human HeLa cells assessed as inhibition of cell proliferation measured after 24 hrs by MTT assay; format: functional, cell-based
MCF7 [7] = assay: Anticancer activity against human MCF7 cells assessed as inhibition of cell proliferation measured after 24 hrs by MTT assay; format: functional, cell-based; conditions: MCF7, 24 h
[8] = Inhibition of KDM (unknown origin) incubated for 30 mins in presence of ATP by ELISA assay; parameters: species or system Homo sapiens
MCF7 [9] = assay: Anticancer activity against human MCF7 cells assessed as inhibition of cell proliferation measured after 24 hrs by MTT based microplate ELISA reader analysis; format: functional; conditions: MCF7, 24 h
HeLa [10] = assay: Anticancer activity against human HeLa cells assessed as inhibition of cell proliferation measured after 24 hrs by MTT based microplate ELISA reader analysis; format: functional
HCT-116 [11] = assay: Anticancer activity against human HCT-116 cells assessed as inhibition of cell proliferation measured after 18 hrs by spectrophotometric analysis relative to control; format: functional
MCF7 [12] = assay: Anticancer activity against human MCF7 cells assessed as inhibition of cell proliferation measured after 18 hrs by spectrophotometric analysis relative to control; format: functional
HepG2 [13] = assay: Anticancer activity against human HepG2 cells assessed as inhibition of cell proliferation measured after 16 hrs by MTT assay; format: functional, cell-based; conditions: HepG2, 16 h
KB = assay: Anticancer activity against human KB cells assessed as inhibition of cell proliferation measured after 16 hrs by MTT assay; format: functional, cell-based
HT-29 = assay: Anticancer activity against human HT-29 cells assessed as inhibition of cell proliferation measured after 16 hrs by MTT assay; format: functional, cell-based; conditions: HT-29, 16 h
A549 = assay: Anticancer activity against human A549 cells assessed as inhibition of cell proliferation measured after 48 hrs by MTT assay based microtiter plate analysis; format: functional; conditions: A549, 48 h
[14] = target: cGMP-specific 3',5'-cyclic phosphodiesterase (Homo sapiens, UniProt O76074); assay: Inhibition of PDE5 (unknown origin)
[15] = target: Epidermal growth factor receptor (Homo sapiens, UniProt P00533); assay: Inhibition of EGFR (unknown origin) by EGFR Kinase Assay Kit method
HepG2 [16] = assay: Anticancer activity against human HepG2 cells assessed as inhibition of cell proliferation measured after 72 hrs by SRB calorimetric assay; format: functional, cell-based; conditions: HepG2, 72 h
[17] = tested on: Panel NCI-60 (60 carcinoma cell lines); assay: Anticancer activity against human Panel NCI-60 (60 carcinoma cell lines) assessed as inhibition of cell proliferation; format: functional
MCF7 [18] = assay: Cell cycle arrest in human MCF7 cells assessed as accumulation at G2/M phase measured after 48 hrs by […] propidium iodide staining based flow cytometry analysis; format: functional; conditions: MCF7, 48 h
[19] = target: Tyrosine-protein kinase BTK (Homo sapiens, UniProt Q06187); assay: Inhibition of human BTK using biotin as a substrate preincubated for 5 mins followed by substrate addition incubated for 30 mins in presence of ATP by fluorescence based assay
Ramos = assay: Anticancer activity against human Ramos cells assessed as inhibition of cell proliferation preincubated for 1 hr followed by compound addition measured after 1 hrs by Cell Titer-Glo assay; format: functional, cell-based
Raji = assay: Anticancer activity against human Raji cells assessed as inhibition of cell proliferation preincubated for 1 hr followed by compound addition measured after 1 hrs by Cell Titer-Glo assay; format: functional, cell-based
MCF7 [20] = assay: Anticancer activity against human MCF7 cells assessed as inhibition of cell proliferation measured after 48 hrs by MTT assay; format: functional, cell-based; conditions: MCF7, 48 h

Chain of Tyrosine-protein kinase JAK2 (O60674 whole entry): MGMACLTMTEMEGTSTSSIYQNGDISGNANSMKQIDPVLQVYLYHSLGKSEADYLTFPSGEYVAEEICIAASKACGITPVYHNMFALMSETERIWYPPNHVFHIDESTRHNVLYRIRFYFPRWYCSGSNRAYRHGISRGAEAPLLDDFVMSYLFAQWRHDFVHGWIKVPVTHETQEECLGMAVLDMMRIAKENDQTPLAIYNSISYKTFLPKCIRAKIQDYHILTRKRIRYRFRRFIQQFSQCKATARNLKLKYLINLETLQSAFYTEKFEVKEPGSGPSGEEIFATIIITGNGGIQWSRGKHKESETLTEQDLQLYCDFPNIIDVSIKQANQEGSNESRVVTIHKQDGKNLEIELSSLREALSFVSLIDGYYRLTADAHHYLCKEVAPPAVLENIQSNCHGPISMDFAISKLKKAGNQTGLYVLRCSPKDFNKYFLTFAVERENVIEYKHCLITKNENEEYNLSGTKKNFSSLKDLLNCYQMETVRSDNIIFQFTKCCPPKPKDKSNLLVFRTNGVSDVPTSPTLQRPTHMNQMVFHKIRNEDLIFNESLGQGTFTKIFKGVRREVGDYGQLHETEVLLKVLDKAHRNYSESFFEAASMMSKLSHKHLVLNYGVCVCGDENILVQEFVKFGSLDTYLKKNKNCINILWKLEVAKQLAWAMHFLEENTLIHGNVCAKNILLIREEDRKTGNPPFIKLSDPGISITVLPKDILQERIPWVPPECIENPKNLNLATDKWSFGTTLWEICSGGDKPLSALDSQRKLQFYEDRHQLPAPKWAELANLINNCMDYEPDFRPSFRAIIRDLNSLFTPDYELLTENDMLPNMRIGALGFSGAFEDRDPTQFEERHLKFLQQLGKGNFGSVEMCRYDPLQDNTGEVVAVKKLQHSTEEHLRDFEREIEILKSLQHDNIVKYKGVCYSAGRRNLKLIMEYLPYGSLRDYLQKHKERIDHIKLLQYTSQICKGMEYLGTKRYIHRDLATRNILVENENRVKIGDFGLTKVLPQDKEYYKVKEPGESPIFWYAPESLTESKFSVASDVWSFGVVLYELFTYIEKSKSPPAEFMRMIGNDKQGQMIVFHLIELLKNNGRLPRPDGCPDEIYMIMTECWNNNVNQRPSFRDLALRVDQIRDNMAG
Chain of Tyrosine-protein kinase BTK (Q06187 whole entry): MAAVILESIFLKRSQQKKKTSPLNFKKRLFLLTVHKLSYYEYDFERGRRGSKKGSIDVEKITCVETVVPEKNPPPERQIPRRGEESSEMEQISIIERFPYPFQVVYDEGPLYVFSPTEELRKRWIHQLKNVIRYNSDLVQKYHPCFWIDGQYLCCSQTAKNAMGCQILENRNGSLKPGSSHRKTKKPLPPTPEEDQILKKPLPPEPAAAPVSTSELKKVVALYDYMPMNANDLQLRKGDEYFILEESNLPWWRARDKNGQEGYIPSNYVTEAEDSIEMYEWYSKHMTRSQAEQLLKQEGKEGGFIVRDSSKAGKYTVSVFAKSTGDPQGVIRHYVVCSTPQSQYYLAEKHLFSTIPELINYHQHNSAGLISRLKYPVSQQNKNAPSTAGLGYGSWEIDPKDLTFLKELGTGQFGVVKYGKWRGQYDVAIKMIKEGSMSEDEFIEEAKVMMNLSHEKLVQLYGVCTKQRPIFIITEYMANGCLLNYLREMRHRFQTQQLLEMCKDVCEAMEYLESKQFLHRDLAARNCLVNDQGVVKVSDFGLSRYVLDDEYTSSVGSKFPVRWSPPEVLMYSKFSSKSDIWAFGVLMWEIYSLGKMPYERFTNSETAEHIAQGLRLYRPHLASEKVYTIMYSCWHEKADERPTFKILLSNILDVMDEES
Chain of Epidermal growth factor receptor (P00533 whole entry): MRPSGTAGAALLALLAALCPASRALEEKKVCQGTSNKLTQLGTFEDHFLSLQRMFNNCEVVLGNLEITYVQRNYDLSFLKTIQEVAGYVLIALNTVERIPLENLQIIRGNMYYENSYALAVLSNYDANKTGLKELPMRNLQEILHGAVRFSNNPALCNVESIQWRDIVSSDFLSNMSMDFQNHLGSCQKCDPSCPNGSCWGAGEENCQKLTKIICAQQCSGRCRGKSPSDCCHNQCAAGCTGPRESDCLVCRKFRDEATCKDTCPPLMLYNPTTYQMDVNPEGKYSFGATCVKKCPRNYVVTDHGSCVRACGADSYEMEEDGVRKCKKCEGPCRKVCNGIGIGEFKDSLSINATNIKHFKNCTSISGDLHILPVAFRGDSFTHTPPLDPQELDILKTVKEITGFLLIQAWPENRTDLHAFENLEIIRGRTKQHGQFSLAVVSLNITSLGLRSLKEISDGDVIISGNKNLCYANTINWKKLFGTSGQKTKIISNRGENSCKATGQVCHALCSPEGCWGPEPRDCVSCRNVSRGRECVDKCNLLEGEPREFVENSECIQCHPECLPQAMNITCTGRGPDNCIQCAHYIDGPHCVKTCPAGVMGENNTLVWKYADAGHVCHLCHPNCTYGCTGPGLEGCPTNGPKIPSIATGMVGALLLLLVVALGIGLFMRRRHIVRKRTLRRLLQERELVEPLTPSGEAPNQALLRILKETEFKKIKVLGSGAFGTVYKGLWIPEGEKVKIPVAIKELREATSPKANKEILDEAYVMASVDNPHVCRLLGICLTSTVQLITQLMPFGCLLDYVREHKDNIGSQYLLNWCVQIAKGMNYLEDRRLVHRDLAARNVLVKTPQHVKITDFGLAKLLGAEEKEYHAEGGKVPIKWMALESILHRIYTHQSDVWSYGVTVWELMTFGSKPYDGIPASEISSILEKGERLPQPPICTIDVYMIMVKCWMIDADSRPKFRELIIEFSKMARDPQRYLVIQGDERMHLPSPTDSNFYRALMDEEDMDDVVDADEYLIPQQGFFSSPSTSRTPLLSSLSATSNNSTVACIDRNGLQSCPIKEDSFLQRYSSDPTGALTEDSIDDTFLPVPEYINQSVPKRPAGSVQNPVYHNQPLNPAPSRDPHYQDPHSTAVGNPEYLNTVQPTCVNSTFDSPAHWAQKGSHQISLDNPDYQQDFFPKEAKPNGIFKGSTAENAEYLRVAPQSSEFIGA

CCNc1nn2c(-c3ccccc3)cc(=O)[nH]c2c1C(=O)Nc1ccc([N+](=O)[O-])cc1
IC50 (HCT-116 [1]): 1.51 µM

Nc1ncnc2c1c(-c1ccc(Oc3ccccc3)nc1)nn2C1CCCN(C(=O)CCl)C1 (centres undefined)
IC50 (Maver1): < 1 µM

O=C(NCc1cc(C(F)(F)F)cc(C(F)(F)F)c1)NC1CCN(c2ncnc3[nH]ncc23)CC1
IC50 (Z-138): < 1 µM
IC50 [2]: < 1 µM
IC50 (JeKo-1): < 1 µM

CSc1nc(-c2cccs2)c2c(N)n[nH]c2n1
IC50 (KM12): 1.21 µM
selectivity ratio [3]: 35.5

Cn1nc(C2NN(C3CCCN(C(=O)CC#N)C3)c3ncnc(N)c32)cc1C(C)(C)O (centres undefined)
IC50 [4]: 0.008 µM

CSc1c(C#N)c(N)nc2c(/N=N/N3C(=O)c4ccccc4C3=O)c(O)nn12
IC50 (HepG2 [5]): 5.6 mg/L (≈ 14.2 µM)
IC50 (HeLa [6]): 5.57 µM
IC50 (MCF7 [7]): 4.17 µM

O=c1[nH]cc(F)c(=O)[nH]1 [FLUOROURACIL]
IC50 (KM12): 12.3 µM
selectivity ratio [3]: 1.93

Cc1cc(=O)n2nc(CC#N)c(C#N)c2[nH]1
IC50 [8]: 4.05 µM

N#Cc1c(-c2ccccc2)nn2c(-c3cccc4ccccc34)ccnc12
IC50 (MCF7 [9]): 3 µM

COc1ccc(-c2c(C#N)cnc3c(C#N)c(-c4ccccc4)nn23)cc1
IC50 (HeLa [10]): 7.8 µM

Cc1nn(-c2ccccc2)c2nc(C)n(Cc3cn(-c4ccc(Cl)cc4)nn3)c(=O)c12
inhibition (INH) (HCT-116 [11]): 75.4%
inhibition (INH) (MCF7 [12]): 75.4%

CCOC(=O)C1=C(C)n2nc(CC#N)c(C#N)c2NC1c1cc(Br)ccc1O (centres undefined)
IC50 (HepG2 [13]): 9.64 µM
IC50 (KB): 6.94 µM
IC50 (HT-29): 5.62 µM

C#Cc1cccc(Nc2ncnc3cc(OCCOC)c(OCCOC)cc23)c1 [ERLOTINIB]
IC50 (A549): 11.7 µM

C=CC(=O)N1CCC(N2NC(c3cc(C(C)(C)O)n(C)n3)c3c(N)ncnc32)C1 (centres undefined)
IC50 [4]: 0.0072 µM

CSc1nc(-c2ccco2)c2c(N)n[nH]c2n1
IC50 (KM12): 1.73 µM
selectivity ratio [3]: 18.8

COc1nc2ccccc2cc1-c1nc2c(cnn2-c2ccc(Br)cc2)c(=O)[nH]1
IC50 [14]: 1.57 µM
IC50 [15]: 5.83 µM
IC50 (HeLa [6]): 8.72 µM
IC50 (MCF7 [7]): 6.56 µM

CCOC(=O)C1=C(C)n2nc(CC#N)c(C#N)c2NC1c1ccc(N(C)C)cc1 (centres undefined)
IC50 (HepG2 [13]): 9.41 µM
IC50 (KB): 8.31 µM
IC50 (HT-29): 9.23 µM

COc1ccc(C2c3c(-c4ccccc4)n[nH]c3Nc3[nH]c(=S)[nH]c(=S)c32)cc1 (centres undefined)
IC50 (HepG2 [16]): 9.2 µM

Nc1nc(Cl)c2cnn(Cc3ccc(Br)cc3F)c2n1
IC50 (HeLa [6]): 22.4 µM
IC50 (MCF7 [7]): 13.9 µM

Nc1ncnc2c1c(Cc1c[nH]c3ccccc13)nn2CC1CCNCC1
GI50 [17]: 0.019 µM

COc1cccc2c1C(=O)c1c(O)c3c(c(O)c1C2=O)C[C@@](O)(C(=O)CO)C[C@@H]3O[C@H]1C[C@H](N)[C@H](O)[C@H](C)O1 [DOXORUBICIN]
IC50 (HeLa [10]): 8.1 µM
IC50 (MCF7 [9]): 5.9 µM

Cn1nc(C2NN(C3CCCN(C(=O)CC#N)C3)c3ncnc(N)c32)cc1C=O (centres undefined)
IC50 [4]: 0.0097 µM

COc1cc(/C=C(/C#N)c2nn3c(=O)cc(C)[nH]c3c2C#N)ccc1O
IC50 [8]: 2.31 µM
IC50 (MCF7 [18]): 1.91 µM

Cc1cc(=O)n2nc(/C(C#N)=C\c3ccco3)c(C#N)c2[nH]1
IC50 [8]: 1.91 µM

C=CC(=O)N1CCCC(N2NC(c3cc(C(C)(C)O)n(C)n3)c3c(N)ncnc32)C1 (centres undefined)
IC50 [19]: 0.00795 µM
IC50 (Ramos): 8.91 µM
IC50 (Raji): 1.8 µM

CC1=CC(C)Nc2c(C(=O)Nc3c(C)cccc3C)c(Nc3ccccc3)nn21 (centres undefined)
IC50 (MCF7 [20]): 7.68 µM

CCOC(=O)C1=C(C)n2nc(CC#N)c(C#N)c2NC1c1ccccc1 (centres undefined)
IC50 (HepG2 [13]): 4.41 µM
IC50 (KB): 7.58 µM
IC50 (HT-29): 8.12 µM
